What is called IC50 is the point on the concentration scale where inhibition reaches its midpoint. Low values mean higher potency, high ones lower potency. What is called Cmax is the maximum level reached in the sampled fluid or tissue. What is called Tmax is the time at which the peak concentration occurs. The term half-life denotes how long it takes for the measured level to halve. Low values mean rapid decline, high ones slow decline. By AUC is commonly meant the area under the concentration-time curve, a measure of exposure. The bioavailability is the share of a dose that reaches the circulation, judged against a reference dose that is usually intravenous. Low values mean little systemic uptake, high ones much systemic uptake.

Read-outs that look alike come from different tables or passages of the source.

Data on ten compounds can be found in patent publication US20230365541A1, “INHIBITOR OF ENHANCER OF ZESTE HOMOLOGUE 2, AND USE THEREOF” (HAISCO PHARMACEUTICALS PTE. LTD., priority 2020, published 2023).

The subject of one data set is SU-DHL-6 cells. Put plainly: SU-DHL-6 cell proliferation test. The note with it: incubated for 14 days. The class given is cell-based, human. How it is done:
SU-DHL-6 cells are human B-cell lymphoma cell lines purchased from ATCC and cultured under the following conditions: RPMI-1640+10% FBS+1% double antibody in a 37° C., 5% CO2 incubator. The cells were plated in a 12-well plate, with a cell concentration of 1×10^5 cells/mL. After the cells were plated, the compounds at different concentrations were added and cultured in a 37° C., 5% CO2 incubator. The cells were counted every 3-4 days (Countstar automated cell counter), centrifuged to remove the supernatant, re-diluted to 1×10^5 cells/mL and plated, and then the compounds at different concentrations were further added. After the mixture was incubated for 14 days and the cells were counted, the test was terminated, and the IC50 values were calculated by using the Origen9.2 software.

For another data set, the target named is EZH2 (Homo sapiens (Human), UniProt Q15910). Put plainly: Test method for EZH2 enzyme activity. The class given is biochemical. The note with it: H3K27(21-44) and [3H]-SAM. As to the method: The compounds were dissolved in DMSO, formulated into 10 mM solutions and serially diluted with DMSO to obtain 100-fold the final concentration. 200 nL of the solutions of the compounds was transferred to a 384-well plate (Perkin Elmer, Cat. No. 6007299) by using Echo550. EZH2 (BPS, Cat. No. 51004) was diluted with 1×assay buffer (50 mM Tris-HCl 9.0, 0.01% Tween-20, 1 mM DTT) to 2-fold the final concentration (EZH2: 3 nM). A mixed solution of H3K27(21-44) and [3H]-SAM (PerkinElmer, Lot. No. 2146246) (H3K27(21-44): 200 nM, [3H]-SAM: 100 nM) was formulated. The EZH2 diluted solution was taken and added to the 384-well plate at 10 μL/well (10 μL of 1×assay buffer was added in the control group). The plate was sealed and then incubated at room temperature for 15 minutes. 10 μL of the mixed solution of H3K27 (21-44) and [3H]-SAM was added to each well. The plate was sealed and then incubated at room temperature for 60 minutes. 50 μM of SAM (Sigma, Cat. No. A7007) was formulated at low temperature and added to the 384-well plate at 10 μL/well. The sample was taken at 25 μL/well, transferred to a flashplate and incubated at room temperature for at least 1 hour. The flashplate was washed 3 times with a plate washing liquid (dH2O+0.1% Tween-20) and read by using Microbeta. The inhibition rate was calculated in Excel according to: inhibition rate (%)=(maximum valuepositive control−detection signal value)/(maximum valuepositive control−minimum valuenegative control)*100, and IC50 values were fitted by using XL-Fit.

Data set [1] in a line: Pharmacokinetic experiment in mice (intravenous 5 mg/kg or intragastric 30 mg/kg). It counts as in vivo. As to the method:
The administration was performed according to table 5.
The concentrations of the compounds in EDTA-K2 anticoagulant plasma were determined by the LC-MS/MS method. The linear range of the standard curve of the compounds is 2-2000 ng/mL. After subjected to precipitating proteins with acetonitrile, the samples were analyzed by LC-MS/MS. The standard curve was subjected to a regression calculation using the weighted least square method (W=1/X^2), and quantified by calculating the ratio of test compound peak area to internal standard peak area.
• (1) except to the blank sample, 400 μL of internal standard working solution (Verapamil internal standard concentration in precipitant acetonitrile is 10.0 ng/mL) was added to a 1.5 mL centrifuge tube containing 30 μL of standard curve samples and quality control samples; • 200 μL of internal standard working solution (Verapamil internal standard concentration in precipitant acetonitrile is 10.0 ng/mL) was added to a 1.5 mL centrifuge tube containing 15 μL of unknown samples; • and 400 μL of acetonitrile was added to the blank sample; • (2) the mixture was mixed evenly for about 1 min in a vortex mixer; • (3) centrifugation was carried out at 10000 rpm at 4C for 10 mi; • (4) 175 μL of the supernatant was transferred to a new 96-well polypropylene plate, and then the plate was sealed and placed in a 10° C. sample tray for injection.

The mark [2] stands for this setting: ICR mice, PO 30 mg/kg, listed as Compound 53, Isomer 1.
[3] abbreviates: ICR mice, IV 5 mg/kg, listed as Compound 53, Isomer 2.
[4] abbreviates: ICR mice, PO 30 mg/kg, listed as Compound 53, Isomer 2.
[5] abbreviates: ICR mice, IV 5 mg/kg, listed as Compound 44, Isomer 2.
[6] abbreviates: ICR mice, PO 30 mg/kg, listed as Compound 44, Isomer 2.

EZH2, sequence (Q15910 other isoform, or with tags, fused parts or gaps isoform Q15910-2): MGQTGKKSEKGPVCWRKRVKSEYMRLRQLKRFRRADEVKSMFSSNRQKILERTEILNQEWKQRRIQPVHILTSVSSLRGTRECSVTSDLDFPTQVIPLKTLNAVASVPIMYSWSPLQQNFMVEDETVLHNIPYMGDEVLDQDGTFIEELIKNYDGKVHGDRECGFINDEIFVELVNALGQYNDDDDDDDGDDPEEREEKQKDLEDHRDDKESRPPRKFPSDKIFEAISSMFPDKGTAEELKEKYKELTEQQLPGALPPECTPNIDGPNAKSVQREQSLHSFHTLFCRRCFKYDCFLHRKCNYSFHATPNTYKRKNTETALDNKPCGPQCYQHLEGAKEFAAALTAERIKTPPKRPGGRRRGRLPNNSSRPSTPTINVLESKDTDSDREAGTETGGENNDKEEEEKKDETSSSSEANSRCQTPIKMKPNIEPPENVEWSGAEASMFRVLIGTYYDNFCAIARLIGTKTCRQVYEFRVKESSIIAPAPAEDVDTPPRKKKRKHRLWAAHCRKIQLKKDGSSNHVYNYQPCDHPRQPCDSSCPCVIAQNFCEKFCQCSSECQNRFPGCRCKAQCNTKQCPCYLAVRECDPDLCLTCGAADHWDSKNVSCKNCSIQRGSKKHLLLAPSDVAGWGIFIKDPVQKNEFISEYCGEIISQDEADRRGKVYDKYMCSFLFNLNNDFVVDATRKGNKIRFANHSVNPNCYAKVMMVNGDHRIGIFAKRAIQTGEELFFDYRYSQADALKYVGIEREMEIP
EZH2, sequence (O75530 2-441 partner): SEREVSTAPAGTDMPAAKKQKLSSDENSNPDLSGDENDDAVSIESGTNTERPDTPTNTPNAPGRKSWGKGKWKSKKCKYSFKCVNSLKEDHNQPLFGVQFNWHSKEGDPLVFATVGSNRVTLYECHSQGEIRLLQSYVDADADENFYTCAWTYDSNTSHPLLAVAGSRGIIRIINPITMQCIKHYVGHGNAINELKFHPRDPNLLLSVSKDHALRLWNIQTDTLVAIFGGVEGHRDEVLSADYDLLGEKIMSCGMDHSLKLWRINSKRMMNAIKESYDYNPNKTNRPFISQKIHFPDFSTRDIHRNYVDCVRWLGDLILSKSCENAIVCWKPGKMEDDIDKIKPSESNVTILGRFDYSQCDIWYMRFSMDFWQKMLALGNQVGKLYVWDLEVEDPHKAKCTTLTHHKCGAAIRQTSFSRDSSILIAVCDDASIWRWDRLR
EZH2, sequence (Q15022 2-739 partner): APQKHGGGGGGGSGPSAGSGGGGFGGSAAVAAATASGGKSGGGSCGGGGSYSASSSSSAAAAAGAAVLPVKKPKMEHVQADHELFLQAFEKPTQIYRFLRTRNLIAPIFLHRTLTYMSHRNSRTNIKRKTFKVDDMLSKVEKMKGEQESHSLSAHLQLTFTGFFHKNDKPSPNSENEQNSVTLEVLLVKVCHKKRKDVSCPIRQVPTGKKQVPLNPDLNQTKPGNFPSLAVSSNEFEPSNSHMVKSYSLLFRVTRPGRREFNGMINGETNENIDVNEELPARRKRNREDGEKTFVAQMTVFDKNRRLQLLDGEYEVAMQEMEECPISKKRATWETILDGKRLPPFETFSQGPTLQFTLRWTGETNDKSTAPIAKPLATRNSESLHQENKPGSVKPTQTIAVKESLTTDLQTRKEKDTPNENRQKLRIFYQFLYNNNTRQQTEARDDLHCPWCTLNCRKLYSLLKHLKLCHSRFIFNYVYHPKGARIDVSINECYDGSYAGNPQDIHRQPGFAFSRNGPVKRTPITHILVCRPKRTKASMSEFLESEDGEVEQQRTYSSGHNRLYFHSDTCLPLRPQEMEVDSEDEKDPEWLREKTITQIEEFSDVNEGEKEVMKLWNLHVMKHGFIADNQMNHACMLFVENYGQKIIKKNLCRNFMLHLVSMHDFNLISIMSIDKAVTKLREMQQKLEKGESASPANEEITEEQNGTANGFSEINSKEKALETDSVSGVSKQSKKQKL
EZH2, sequence (Q09028 2-425 partner): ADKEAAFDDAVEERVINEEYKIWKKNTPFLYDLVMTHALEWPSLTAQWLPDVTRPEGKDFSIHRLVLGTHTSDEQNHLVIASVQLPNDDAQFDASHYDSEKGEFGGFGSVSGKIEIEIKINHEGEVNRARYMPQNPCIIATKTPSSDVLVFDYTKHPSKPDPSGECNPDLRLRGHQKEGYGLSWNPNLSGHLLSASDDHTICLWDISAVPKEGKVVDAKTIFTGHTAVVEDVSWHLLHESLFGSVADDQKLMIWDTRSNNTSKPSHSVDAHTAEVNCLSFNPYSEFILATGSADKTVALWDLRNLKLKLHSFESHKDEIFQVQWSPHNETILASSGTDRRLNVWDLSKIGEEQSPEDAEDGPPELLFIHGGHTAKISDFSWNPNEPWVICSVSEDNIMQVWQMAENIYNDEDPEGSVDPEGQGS
EZH2, sequence (Q6ZN18 whole entry partner): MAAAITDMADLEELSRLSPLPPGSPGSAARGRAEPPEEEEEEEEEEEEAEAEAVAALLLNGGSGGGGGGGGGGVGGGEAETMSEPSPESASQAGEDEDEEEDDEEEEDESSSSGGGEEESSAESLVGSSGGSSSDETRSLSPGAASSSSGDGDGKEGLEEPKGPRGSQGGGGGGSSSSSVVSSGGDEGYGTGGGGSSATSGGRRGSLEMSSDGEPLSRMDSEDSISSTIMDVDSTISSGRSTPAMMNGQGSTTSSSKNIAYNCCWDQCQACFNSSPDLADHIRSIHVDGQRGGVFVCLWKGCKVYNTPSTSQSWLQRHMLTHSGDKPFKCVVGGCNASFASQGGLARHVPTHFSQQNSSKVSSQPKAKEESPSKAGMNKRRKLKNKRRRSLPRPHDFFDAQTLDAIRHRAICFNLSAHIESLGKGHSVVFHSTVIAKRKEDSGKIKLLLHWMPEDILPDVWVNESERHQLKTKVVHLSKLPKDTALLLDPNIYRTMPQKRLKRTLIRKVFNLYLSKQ

For the compound `CSc1cc(C)[nH]c(=O)c1CNC(=O)c1cc(Cl)c2c(c1C)OC(C)([C@H]1CC[C@@H](N3CC(N4CCCC4)C3)CC1)O2` (single isomer, unassigned) [Compound 43, isomer 1, 7-chloro-2,4-dimethyl-N-((6-methyl-4-(methylthio)-2-oxo-1,2-dihydropyridin-3-yl)methyl)-2-(4-(3-(pyrrolidin-1-yl)azetidin-1-yl)cyclohexyl)benzo[d][1,3]dioxole-5-carboxamide], the IC50 in the data set with SU-DHL-6 cells (Homo sapiens, 336 h) came to 59300 pM; on EZH2, 490 pM.

Take `[2H]C([2H])(NC(=O)c1cc(Cl)c2c(c1C)OC(C)(C1CCC(N[C@H]3C[C@H](F)C3)CC1)O2)c1c(SC)cc(C)[nH]c1=O` (single isomer, unassigned) [Compound 53, isomer 1, 7-chloro-2-(4-((trans-3-fluorocyclobutyl)amino)cyclohexyl)-2,4-dimethyl-N-((6-methyl-4-(methylthio)-2-oxo-1,2-dihydropyridin-3-yl)methyl-d2)benzo[d][1,3]dioxole-5-carboxamide]: it took 330 pM to reach half-maximal inhibition against EZH2 (IC50). In data set [1] (setting [2]), the highest concentration (Cmax) came out at 1025 ng/mL, the T1/2 stood at 1.10 h and the time to peak (Tmax) is 0.500 h. The same compound gave a half-life in data set [1] (male, ICR, mouse, plasma, iv, 5 mg/kg, IV 5 mg/kg) of 1.21 h. Further, the AUC in data set [1] (male, ICR, mouse, plasma, iv, 5 mg/kg, IV 5 mg/kg, read-out: AUC) worked out at 703 ng·h/mL. Further, in data set [1] (male, ICR, mouse, plasma, iv, 5 mg/kg, IV 5 mg/kg, read-out: C0), the C0 turned out to be 2360 ng/mL. In addition, the bioavailability in data set [1] (male, ICR, mouse, plasma, po, 30 mg/kg, PO 30 mg/kg vs IV 5 mg/kg) was determined as 47.9%. In addition, the AUC in data set [1] (male, ICR, mouse, plasma, po, 30 mg/kg, PO 30 mg/kg, read-out: AUC) was determined as 2020 ng·h/mL.

For `CSc1cc(C)[nH]c(=O)c1CNC(=O)c1cc(Cl)c2c(c1C)OC(C)([C@H]1CC[C@@H](NC3CC(F)(F)C3)CC1)O2` (single isomer, unassigned) [Compound 4, isomer 2, 7-chloro-2-(4-((3,3-difluorocyclobutyl)amino)cyclohexyl)-2,4-dimethyl-N-((6-methyl-4-(methylthio)-2-oxo-1,2-dihydropyridin-3-yl)methyl)benzo[d][1,3]dioxole-5-carboxamide], the half-inhibitory concentration (IC50) came out at 9790 pM in the data set with SU-DHL-6 cells and 560 pM on EZH2.

As to `CSc1cc(C)[nH]c(=O)c1CNC(=O)c1cc(Cl)c2c(c1C)OC(C)([C@H]1CC[C@H](N[C@H]3C[C@@H](F)C3)CC1)O2` (single isomer, unassigned) [Compound 41, isomer 2, 7-chloro-2-(4-((cis-3-fluorocyclobutyl)amino)cyclohexyl)-2,4-dimethyl-N-((6-methyl-4-(methylthio)-2-oxo-1,2-dihydropyridin-3-yl)methyl)benzo[d][1,3]dioxole-5-carboxamide], the half-maximal inhibitory concentration (IC50) in the data set on SU-DHL-6 cells stood at 22000 pM; against EZH2, 440 pM.

For `CSc1cc(C)[nH]c(=O)c1CNC(=O)c1cc(Cl)c2c(c1C)OC(C)(C1CCN(CC3CC3(F)F)CC1)O2` (stereo not drawn) [Compound 31, 7-chloro-2-(1-((2,2-difluorocyclopropyl)methyl)piperidin-4-yl)-2,4-dimethyl-N-((6-methyl-4-(methylthio)-2-oxo-1,2-dihydropyridin-3-yl)methyl)benzo[d][1,3]dioxole-5-carboxamide], the concentration for half-maximal inhibition (IC50) came to 68000 pM in the data set on SU-DHL-6 cells (Homo sapiens, SU-DHL-6, 336 h) and 520 pM against EZH2.

Turning to `[2H]C([2H])(NC(=O)c1cc(Cl)c2c(c1C)OC(C)([C@H]1CC[C@@H](N3CC4COCC4C3)CC1)O2)c1c(SC)cc(C)[nH]c1=O` (single isomer, unassigned) [Compound 60, isomer 1, 7-chloro-2,4-dimethyl-N-((6-methyl-4-(methylthio)-2-oxo-1,2-dihydropyridin-3-yl)methyl-d2)-2-(4-(tetrahydro-1H-furo[3,4-c]pyrrol-5(3H)-yl)cyclohexyl)benzo[d][1,3]dioxole-5-carboxamide], the 50% inhibitory concentration (IC50) in the data set with SU-DHL-6 cells came out at 58600 pM; at EZH2, 180 pM.

In data set [1] (setting [3]), `[2H]C([2H])(NC(=O)c1cc(Cl)c2c(c1C)OC(C)(C1CCC(N[C@H]3C[C@H](F)C3)CC1)O2)c1c(SC)cc(C)[nH]c1=O` (single isomer, unassigned) [Compound 53, isomer 2, 7-chloro-2-(4-((trans-3-fluorocyclobutyl)amino)cyclohexyl)-2,4-dimethyl-N-((6-methyl-4-(methylthio)-2-oxo-1,2-dihydropyridin-3-yl)methyl-d2)benzo[d][1,3]dioxole-5-carboxamide] gave an exposure (AUC) of 954 ng·h/mL, a C0 of 2665 ng/mL and a T1/2 of 1.87 h. The same compound displayed a F % in data set [1] (ICR mice, PO 30 mg/kg vs IV 5 mg/kg, listed as Compound 53, Isomer 2) of 38.4%. For the same compound, in data set [1] (setting [4]), the AUC was found to be 2201 ng·h/mL, the Cmax worked out at 476 ng/mL, the T1/2 stood at 4.51 h and the Tmax is given as 4.00 h.

For `[2H]C([2H])(NC(=O)c1cc(Cl)c2c(c1C)OC(C)([C@H]1CC[C@@H](NC3CC(F)(F)C3)CC1)O2)c1c(SC)cc(C)[nH]c1=O` (single isomer, unassigned) [Compound 44, isomer 2, 7-chloro-2-(4-((3,3-difluorocyclobutyl)amino)cyclohexyl)-2,4-dimethyl-N-((6-methyl-4-(methylthio)-2-oxo-1,2-dihydropyridin-3-yl)methyl-d2)benzo[d][1,3]dioxole-5-carboxamide], the midpoint of inhibition against EZH2, the IC50, lay at 510 pM. Besides, in data set [1] (setting [5]), the AUC turned out to be 713 ng·h/mL, the C0 is 2482 ng/mL and the T1/2 is listed as 2.33 h. The compound also gave a F % in data set [1] (ICR mice, PO 30 mg/kg vs IV 5 mg/kg, listed as Compound 44, Isomer 2) of 27.4%. In data set [1] (setting [6]), this compound returned an AUC of 917 ng·h/mL, a Cmax of 463 ng/mL and a T1/2 of 1.81 h. Besides, the Tmax in data set [1] (male, ICR, mouse, plasma, po, 30 mg/kg, PO 30 mg/kg, read-out: Tmax) was found to be 1 h.

As to `CSc1cc(C)[nH]c(=O)c1CNC(=O)c1cc(Cl)c2c(c1C)OC(C)([C@H]1CC[C@@H](c3ccccn3)CC1)O2` (single isomer, unassigned) [Compound 39, isomer 1, 7-chloro-2,4-dimethyl-N-((6-methyl-4-(methylthio)-2-oxo-1,2-dihydropyridin-3-yl)methyl)-2-(4-(pyridin-2-yl)cyclohexyl)benzo[d][1,3]dioxole-5-carboxamide], the 50% inhibitory concentration (IC50) with SU-DHL-6 cells was found to be 28200 pM; against EZH2 it was 420 pM.

For the compound `CSc1cc(C)[nH]c(=O)c1CNC(=O)c1cc(Cl)c2c(c1C)OC(C)(C1CCN(CC3CC(F)(F)C3)CC1)O2` (single isomer, unassigned) [Compound 10, isomer 1, 7-chloro-2-(1-((3,3-difluorocyclobutyl)methyl)piperidin-4-yl)-2,4-dimethyl-N-((6-methyl-4-(methylthio)-2-oxo-1,2-dihydropyridin-3-yl)methyl)benzo[d][1,3]dioxole-5-carboxamide], the half-maximal inhibitory concentration (IC50) on EZH2 was determined as 560 pM. This lies in the sub-nanomolar range.
